# How the values were obtained:
# Format in all cases: cell-based
# Jurkat = assay: MTT assay, cell number relative to vehicle; settings: Homo sapiens, T Cell Lymphoblastic Leukemia, 48 hours
# Molt-3 = assay: MTT assay, cell number relative to vehicle; settings: Homo sapiens, Molt-3, T Cell Lymphoblastic Leukemia, 48 hours
# Molt-4 = assay: MTT assay, cell number relative to vehicle; settings: Homo sapiens, Molt-4, T Cell Lymphoblastic Leukemia, 48 hours
# HSB-2 = assay: MTT assay, cell number relative to vehicle; settings: HSB2, HSB-2 (LCK-TCRβ), T Cell Lymphoblastic Leukemia, 48 hours
# CEM = assay: MTT assay, cell number relative to vehicle; settings: Homo sapiens, CCRF-CEM, T Cell Lymphoblastic Leukemia, 48 hours
# RCH-AcV = assay: MTT assay, cell number relative to vehicle; settings: RCH-AcV (E2A-PBX1), B Cell Lymphoblastic Leukemia, 48 hours
# REH = assay: MTT assay, cell number relative to vehicle; settings: Homo sapiens, REH (TEL-AML1), B Cell Lymphoblastic Leukemia, 48 hours
# Procedure: (§1) Alternatively, an ALL cell line (REH) was treated with Trichostatin A (TSA), sodium phenyl butyrate (SPB), or vehicle only for 48 hours. MTT or BrdU were added for 4 hours. The relative number of viable cells, as indicated by MTT reduction, was determined (FIG. 1A and Table 1). The relative number of proliferating cells, as indicated by BrdU-incorporation, was measured using an ELISA assay (FIG. 1B). IC50 values were calculated using non-linear regression (Table 1). The percentages of apoptotic and dead cells were determined by flow cytometric analysis of cells stained with YO-PRO®-1 and propidium iodide (FIGS. 2 and 5A). DNA content was determined by flow cytometric analysis of propidium iodide stained cells. The fractions of cells with G1, S, and G2/M phase DNA contents were determined (FIGS. 3 and 5B).
# UOCB1 = assay: MTT assay, cell number relative to vehicle; settings: Homo sapiens, UoC-B1, UOCB1 (E2A-HLF), B Cell Lymphoblastic Leukemia, 48 hours
# Nalm-6 = assay: MTT assay, cell number relative to vehicle; settings: Homo sapiens, Nalm-6 (PDGFRβ-TEL), B Cell Lymphoblastic Leukemia, 48 hours
# HAL-01 = assay: MTT assay, cell number relative to vehicle; settings: Homo sapiens, HAL-01 (TCF3/E2A-HLF), B Cell Lymphoblastic Leukemia, 48 hours
# RS4; 11 = assay: MTT assay, cell number relative to vehicle; settings: Homo sapiens, 11 (MLL-AF4), Biphenotypic Leukemia with Lymphoblastic Features, 48 hours
# SEM cells = assay: MTT assay, cell number relative to vehicle; settings: SEM (MLL-AF4), Biphenotypic Leukemia with Lymphoblastic Features, 48 hours
# KOPN-8 = assay: MTT assay, cell number relative to vehicle; settings: Homo sapiens, KOPN-8 (MLL-ENL), Biphenotypic Leukemia with Lymphoblastic Features, 48 hours
# HEL = assay: MTT assay, cell number relative to vehicle; settings: Homo sapiens, Myeloid Leukemia, 48 hours
# KG1 = assay: MTT assay, cell number relative to vehicle; settings: Homo sapiens, KG-1, KG1, Myeloid Leukemia, 48 hours
# U937 = assay: MTT assay, cell number relative to vehicle; settings: Homo sapiens, U-937, U937, Myeloid Leukemia, 48 hours
# EOL-1 = assay: MTT assay, cell number relative to vehicle; settings: Homo sapiens, EOL1, EOL-1 (FIP1L1-PDGFRα), Myeloid Leukemia, 48 hours
# HL-60 = assay: MTT assay, cell number relative to vehicle; settings: Homo sapiens, HL-60, Myeloid Leukemia, 48 hours
# MV4-11 = assay: MTT assay, cell number relative to vehicle; settings: Homo sapiens, MV4-11 (MLL-AF4), Biphenotypic Leukemia with Myeloid Features, 48 hours
# Molm-13 = assay: MTT assay, cell number relative to vehicle; settings: Homo sapiens, Molm-13 (MLL-AF9), Biphenotypic Leukemia with Myeloid Features, 48 hours
# Molm-14 = assay: MTT assay, cell number relative to vehicle; settings: Homo sapiens, Molm-14 (MLL-AF9), Biphenotypic Leukemia with Myeloid Features, 48 hours
# THP-1 = assay: MTT assay, cell number relative to vehicle; settings: Homo sapiens, THP-1 (MLL-AF9), Biphenotypic Leukemia with Myeloid Features, 48 hours
# NOMO-1 = assay: MTT assay, cell number relative to vehicle; settings: Homo sapiens, NOMO-1 (MLL-AF9), Biphenotypic Leukemia with Myeloid Features, 48 hours
# [1] = system: mixed lineage leukemia cell lines; assay: Apoptotic and dead cells by flow cytometry (YO-PRO-1 / propidium iodide); settings: 48 hours; FIG. 2
# Procedure: Apoptotic and dead cells were identified by flow cytometric analysis of cells stained with propidium iodide and YO-PRO®-1. Cells undergoing apoptosis are stained with YO-PRO®-1, but are impermeable to propidium iodide. Dead cells and cells in late apoptosis are permeable to both dyes. Viable cells are not stained by either dye. Mean (+/−SEM) percentages of apoptotic and dead cells were derived from 3-7 independent experiments.
# as §1
structure (smiles),measurement,setting,value
"Nc1ccccc1NC(=O)c1ccc(CNC(=O)OCc2cccnc2)cc1 [entinostat, N-(2-aminophenyl)-4-(N-(pyridin-3-ylmethoxycarbonyl)aminomethyl)benzamide]",IC50,Jurkat,1270 nM
same,IC50,Molt-3,866 nM
same,IC50,Molt-4,721 nM
same,IC50,HSB-2,1290 nM
same,IC50,CEM,1280 nM
same,IC50,RCH-AcV,723 nM
same,IC50,REH,1500 nM
same,IC50,UOCB1,686 nM
same,IC50,Nalm-6,801 nM
same,IC50,HAL-01,499 nM
same,IC50,RS4; 11,2420 nM
same,IC50,SEM cells,250 nM
same,IC50,KOPN-8,396 nM
same,IC50,HEL,957 nM
same,IC50,KG1,1540 nM
same,IC50,U937,1000 nM
same,IC50,EOL-1,120 nM
same,IC50,HL-60,690 nM
same,IC50,MV4-11,362 nM
same,IC50,Molm-13,758 nM
same,IC50,Molm-14,839 nM
same,IC50,THP-1,4450 nM
same,IC50,NOMO-1,587 nM
same,induction of cell death (apoptotic and dead cells),[1],dose-dependent cell death
"O=C(CCCCCCC(=O)Nc1ccccc1)NO [vorinostat, N′-hydroxy-N-phenyl-octanediamide]",IC50,Jurkat,810 nM
same,induction of cell death (apoptotic and dead cells),[1],dose-dependent cell death

# From patent US20110053991A1, “Treatment of Histone Deacetylase Mediated Disorders” (priority 2007, published 2011)
